Laboratory results as given in PubChem BioAssay (NCI).
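Method: 48-hour compound exposure of cells in 96-well plates, five concentrations, linear interpolation of endpoints. Abbreviation: GI50, concentration required for 50% inhibition of growth. TGI marks complete inhibition of growth.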

Assays:
Assay in all cases: inhibition of tumour cell growth, NCI panel, 48 h
SK-MEL-2 melanoma = tested on: SK-MEL-2 melanoma
NCI-H522 lung = tested on: NCI-H522 lung
U251 CNS = tested on: U251 CNS
HL-60(TB) leukemia = tested on: HL-60(TB) leukemia
HCC-2998 colon = tested on: HCC-2998 colon
CAKI-1 renal = tested on: CAKI-1 renal
HS 578T breast = tested on: HS 578T breast
SF-295 CNS = tested on: SF-295 CNS
OVCAR-4 ovarian = tested on: OVCAR-4 ovarian
SK-MEL-5 melanoma = tested on: SK-MEL-5 melanoma
OVCAR-3 ovarian = tested on: OVCAR-3 ovarian
NCI-H226 lung = tested on: NCI-H226 lung
SNB-19 CNS = tested on: SNB-19 CNS
SF-268 CNS = tested on: SF-268 CNS
RXF 393 renal = tested on: RXF 393 renal
HT29 colon = tested on: HT29 colon
SN12C renal = tested on: SN12C renal
DU-145 prostate = tested on: DU-145 prostate
EKVX NSCLC = tested on: EKVX NSCLC
NCI-H460 lung = tested on: NCI-H460 lung
M14 melanoma = tested on: M14 melanoma
MDA-MB-435 = tested on: MDA-MB-435
SK-OV-3 ovarian = tested on: SK-OV-3 ovarian
TK-10 renal = tested on: TK-10 renal
LOX IMVI melanoma = tested on: LOX IMVI melanoma
UACC-62 melanoma = tested on: UACC-62 melanoma
HOP-92 NSCLC = tested on: HOP-92 NSCLC
SW-620 colon = tested on: SW-620 colon
CCRF-CEM leukemia = tested on: CCRF-CEM leukemia
MOLT-4 leukemia = tested on: MOLT-4 leukemia
COLO 205 colon = tested on: COLO 205 colon
KM12 colon = tested on: KM12 colon
A549 NSCLC = tested on: A549 NSCLC
ACHN renal = tested on: ACHN renal
IGROV1 ovarian = tested on: IGROV1 ovarian
SR leukemia = tested on: SR leukemia
T-47D breast = tested on: T-47D breast
HCT-116 colon = tested on: HCT-116 colon
MDA-MB-231 breast = tested on: MDA-MB-231 breast
SK-MEL-28 melanoma = tested on: SK-MEL-28 melanoma
SNB-75 CNS = tested on: SNB-75 CNS
UO-31 renal = tested on: UO-31 renal
UACC-257 melanoma = tested on: UACC-257 melanoma
MALME-3M melanoma = tested on: MALME-3M melanoma
HCT-15 colon = tested on: HCT-15 colon
A498 renal = tested on: A498 renal
786-0 renal = tested on: 786-0 renal
K-562 leukemia = tested on: K-562 leukemia
RPMI-8226 leukemia = tested on: RPMI-8226 leukemia
NCI-H23 lung = tested on: NCI-H23 lung
HOP-62 NSCLC = tested on: HOP-62 NSCLC
SF-539 CNS = tested on: SF-539 CNS
PC-3 prostate = tested on: PC-3 prostate
OVCAR-5 ovarian = tested on: OVCAR-5 ovarian

C[C@H]1[C@H](C)CC[C@]2(C(=O)N3CCN(C)CC3)CC[C@]3(C)C(=CC[C@@H]4[C@@]5(C)C/C(=C/c6cccnc6)C(=O)C(C)(C)[C@@H]5CC[C@]43C)[C@H]12
GI50 (SK-MEL-2 melanoma): 1530 nM
TGI (SK-MEL-2 melanoma): 3.08 µM
GI50 (NCI-H522 lung): 328 nM
TGI (NCI-H522 lung): 1300 nM
GI50 (U251 CNS): 547 nM
TGI (U251 CNS): 1870 nM
GI50 (HL-60(TB) leukemia): 487 nM
TGI (HL-60(TB) leukemia): 1860 nM
GI50 (HCC-2998 colon): 1280 nM
TGI (HCC-2998 colon): 2670 nM
GI50 (CAKI-1 renal): 1220 nM
TGI (CAKI-1 renal): 2460 nM
GI50 (HS 578T breast): 1430 nM
TGI (HS 578T breast): 5.4 µM
GI50 (SF-295 CNS): 1600 nM
TGI (SF-295 CNS): 3.01 µM
GI50 (OVCAR-4 ovarian): 1070 nM
TGI (OVCAR-4 ovarian): 2480 nM
GI50 (SK-MEL-5 melanoma): 1140 nM
TGI (SK-MEL-5 melanoma): 2540 nM
GI50 (OVCAR-3 ovarian): 969 nM
TGI (OVCAR-3 ovarian): 2360 nM
GI50 (NCI-H226 lung): 1810 nM
TGI (NCI-H226 lung): 3.77 µM
GI50 (SNB-19 CNS): 956 nM
TGI (SNB-19 CNS): 2230 nM
GI50 (SF-268 CNS): 1470 nM
TGI (SF-268 CNS): 3.05 µM
GI50 (RXF 393 renal): 1240 nM
TGI (RXF 393 renal): 2550 nM
GI50 (HT29 colon): 926 nM
TGI (HT29 colon): 2670 nM
GI50 (SN12C renal): 1150 nM
TGI (SN12C renal): 2650 nM
GI50 (DU-145 prostate): 1290 nM
TGI (DU-145 prostate): 2650 nM
GI50 (EKVX NSCLC): 1590 nM
TGI (EKVX NSCLC): 2990 nM
GI50 (NCI-H460 lung): 891 nM
TGI (NCI-H460 lung): 2450 nM
GI50 (M14 melanoma): 802 nM
TGI (M14 melanoma): 2300 nM
GI50 (MDA-MB-435): 1130 nM
TGI (MDA-MB-435): 2490 nM
GI50 (SK-OV-3 ovarian): 1710 nM
TGI (SK-OV-3 ovarian): 3.22 µM
GI50 (TK-10 renal): 1540 nM
TGI (TK-10 renal): 3.04 µM
GI50 (LOX IMVI melanoma): 1410 nM
TGI (LOX IMVI melanoma): 2880 nM
GI50 (UACC-62 melanoma): 1150 nM
TGI (UACC-62 melanoma): 2520 nM
GI50 (HOP-92 NSCLC): 446 nM
TGI (HOP-92 NSCLC): 1840 nM
GI50 (SW-620 colon): 924 nM
TGI (SW-620 colon): 2510 nM
GI50 (CCRF-CEM leukemia): 2000 nM
TGI (CCRF-CEM leukemia): 5.64 µM
GI50 (MOLT-4 leukemia): 1920 nM
TGI (MOLT-4 leukemia): 5.75 µM
GI50 (COLO 205 colon): 1530 nM
TGI (COLO 205 colon): 4.78 µM
GI50 (KM12 colon): 976 nM
TGI (KM12 colon): 2560 nM
GI50 (A549 NSCLC): 1060 nM
TGI (A549 NSCLC): 2320 nM
GI50 (ACHN renal): 1230 nM
TGI (ACHN renal): 2490 nM
GI50 (IGROV1 ovarian): 1520 nM
TGI (IGROV1 ovarian): 3.31 µM
GI50 (SR leukemia): 1370 nM
TGI (SR leukemia): > 100 µM
GI50 (T-47D breast): 511 nM
TGI (T-47D breast): 2.16 µM
GI50 (HCT-116 colon): 669 nM
TGI (HCT-116 colon): 1890 nM
GI50 (MDA-MB-231 breast): 943 nM
TGI (MDA-MB-231 breast): 2250 nM
GI50 (SK-MEL-28 melanoma): 1400 nM
TGI (SK-MEL-28 melanoma): 2760 nM
GI50 (SNB-75 CNS): 1080 nM
TGI (SNB-75 CNS): 2.34 µM
GI50 (UO-31 renal): 775 nM
TGI (UO-31 renal): 2160 nM
GI50 (UACC-257 melanoma): 1410 nM
TGI (UACC-257 melanoma): 2910 nM
GI50 (MALME-3M melanoma): 1080 nM
TGI (MALME-3M melanoma): 2450 nM
GI50 (HCT-15 colon): 960 nM
TGI (HCT-15 colon): 2450 nM
GI50 (A498 renal): 1520 nM
TGI (A498 renal): 2920 nM
GI50 (786-0 renal): 670 nM
TGI (786-0 renal): 2000 nM
GI50 (K-562 leukemia): 1670 nM
TGI (K-562 leukemia): > 100 µM
GI50 (RPMI-8226 leukemia): 1490 nM
TGI (RPMI-8226 leukemia): 4.15 µM
GI50 (NCI-H23 lung): 1570 nM
TGI (NCI-H23 lung): 3.19 µM
GI50 (HOP-62 NSCLC): 1580 nM
TGI (HOP-62 NSCLC): 3.11 µM
GI50 (SF-539 CNS): 1440 nM
TGI (SF-539 CNS): 2780 nM
GI50 (PC-3 prostate): 541 nM
TGI (PC-3 prostate): 1850 nM
GI50 (OVCAR-5 ovarian): 1550 nM
TGI (OVCAR-5 ovarian): 2910 nM

N#Cc1c2cccnc2c2nnc3cc(Cl)c(Cl)cc3n12
GI50 (SK-MEL-2 melanoma): 3330 nM
TGI (SK-MEL-2 melanoma): > 100 µM
GI50 (SK-MEL-5 melanoma): > 100000 nM
TGI (SK-MEL-5 melanoma): > 100000 nM
GI50 (OVCAR-3 ovarian): 1830 nM
TGI (OVCAR-3 ovarian): 3270 nM
GI50 (SF-268 CNS): 2260 nM
TGI (SF-268 CNS): 5.25 µM
GI50 (SK-OV-3 ovarian): > 100000 nM
TGI (SK-OV-3 ovarian): > 100 µM
GI50 (TK-10 renal): > 100000 nM
TGI (TK-10 renal): > 100 µM
GI50 (CCRF-CEM leukemia): 3060 nM
TGI (CCRF-CEM leukemia): > 100 µM
GI50 (MOLT-4 leukemia): 3590 nM
TGI (MOLT-4 leukemia): > 100 µM
GI50 (A549 NSCLC): > 100000 nM
TGI (A549 NSCLC): > 100000 nM
GI50 (SR leukemia): 923 nM
TGI (SR leukemia): 7.51 µM
GI50 (T-47D breast): 1600 nM
TGI (T-47D breast): 4 µM
GI50 (SNB-75 CNS): 1540 nM
TGI (SNB-75 CNS): 3.96 µM
GI50 (786-0 renal): > 100000 nM
TGI (786-0 renal): > 100000 nM
GI50 (K-562 leukemia): 3520 nM
TGI (K-562 leukemia): > 100 µM
GI50 (NCI-H23 lung): 2810 nM
TGI (NCI-H23 lung): > 100 µM
GI50 (OVCAR-5 ovarian): > 100000 nM
TGI (OVCAR-5 ovarian): > 100000 nM
